Reference: ChEMBL document CHEMBL1201862, “PubChem BioAssay data set” (2004)
Activity calls are given as the source filed them.

Legend:
[1] = molecular target: Tyrosine-protein kinase Lck (Homo sapiens, UniProt P06239); assay type: functional;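 further: lck was assayed as one member of a kinase panel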
Misshapen-like kinase 1 = Misshapen-like kinase 1 (Homo sapiens, UniProt Q8N4C8); assay type: functional;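 further: kinome panel screen with MINK as the panel member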
[2] = molecular target: T1, Testis-specific serine/threonine-protein kinase 2 (Homo sapiens, UniProt Q96PF2); assay type: functional;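 further: part of the Navigating the Kinome panel, target entry STK22B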
T1 sequence (Q96PF2 whole entry): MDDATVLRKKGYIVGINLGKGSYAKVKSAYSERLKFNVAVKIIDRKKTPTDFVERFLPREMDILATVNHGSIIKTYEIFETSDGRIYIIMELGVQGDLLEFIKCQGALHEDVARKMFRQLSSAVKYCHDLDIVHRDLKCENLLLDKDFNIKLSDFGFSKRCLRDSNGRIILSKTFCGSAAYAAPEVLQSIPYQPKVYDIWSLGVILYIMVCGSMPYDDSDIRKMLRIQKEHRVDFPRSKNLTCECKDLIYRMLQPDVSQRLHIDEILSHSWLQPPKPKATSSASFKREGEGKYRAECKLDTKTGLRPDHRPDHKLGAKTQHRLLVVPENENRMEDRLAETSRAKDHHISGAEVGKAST

[3] = molecular target: Serine/threonine-protein kinase TAO1 (Homo sapiens, UniProt Q7L7X3); assay type: functional
Chain of Serine/threonine-protein kinase TAO1 (Q7L7X3 whole entry): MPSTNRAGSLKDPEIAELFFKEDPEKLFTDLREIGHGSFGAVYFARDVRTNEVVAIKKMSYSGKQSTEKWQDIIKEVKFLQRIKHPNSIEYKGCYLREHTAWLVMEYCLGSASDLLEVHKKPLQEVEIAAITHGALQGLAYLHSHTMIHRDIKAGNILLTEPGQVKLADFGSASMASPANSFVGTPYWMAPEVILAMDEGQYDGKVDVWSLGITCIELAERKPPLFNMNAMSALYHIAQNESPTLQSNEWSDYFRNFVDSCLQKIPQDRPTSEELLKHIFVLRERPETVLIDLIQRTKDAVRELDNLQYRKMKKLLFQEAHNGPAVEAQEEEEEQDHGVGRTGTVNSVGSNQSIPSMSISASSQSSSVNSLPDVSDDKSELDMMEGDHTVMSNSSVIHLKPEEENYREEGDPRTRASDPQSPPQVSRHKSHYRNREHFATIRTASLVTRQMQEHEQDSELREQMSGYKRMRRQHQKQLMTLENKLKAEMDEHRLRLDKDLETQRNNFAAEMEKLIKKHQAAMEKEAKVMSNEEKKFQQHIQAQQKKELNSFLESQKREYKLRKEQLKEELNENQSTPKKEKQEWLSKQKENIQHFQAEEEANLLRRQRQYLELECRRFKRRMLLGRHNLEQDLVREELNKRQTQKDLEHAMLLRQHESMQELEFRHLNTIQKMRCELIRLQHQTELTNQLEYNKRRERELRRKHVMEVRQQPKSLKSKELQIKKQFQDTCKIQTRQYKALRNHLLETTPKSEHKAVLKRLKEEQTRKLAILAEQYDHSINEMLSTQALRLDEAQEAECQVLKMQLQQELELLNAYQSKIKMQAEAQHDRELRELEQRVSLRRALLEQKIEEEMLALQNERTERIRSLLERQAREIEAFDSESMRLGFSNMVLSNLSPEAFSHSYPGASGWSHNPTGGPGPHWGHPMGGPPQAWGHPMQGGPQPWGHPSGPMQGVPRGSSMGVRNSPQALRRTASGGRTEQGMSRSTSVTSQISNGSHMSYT

[4] = molecular target: Mitogen-activated protein kinase 8 (Homo sapiens, UniProt P45983); assay type: functional;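 further: value comes from one member of a kinome-wide kinase profiling panel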
Chain of Mitogen-activated protein kinase 8 (P45983 whole entry): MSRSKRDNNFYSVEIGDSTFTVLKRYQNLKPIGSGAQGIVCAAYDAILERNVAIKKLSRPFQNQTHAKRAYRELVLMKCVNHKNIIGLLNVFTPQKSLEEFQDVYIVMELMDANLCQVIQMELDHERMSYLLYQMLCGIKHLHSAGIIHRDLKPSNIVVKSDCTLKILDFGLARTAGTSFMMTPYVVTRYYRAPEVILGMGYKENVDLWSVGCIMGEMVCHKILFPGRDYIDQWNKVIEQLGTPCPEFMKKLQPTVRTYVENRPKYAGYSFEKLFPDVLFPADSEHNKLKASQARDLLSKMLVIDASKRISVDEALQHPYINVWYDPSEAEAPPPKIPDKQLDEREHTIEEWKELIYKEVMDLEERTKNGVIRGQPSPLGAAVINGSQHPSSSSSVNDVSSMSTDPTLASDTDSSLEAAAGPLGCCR

[5] = molecular target: cGMP-dependent protein kinase 1 (Homo sapiens, UniProt Q13976); assay type: functional;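 further: value from a kinome panel screen with PRKG1 as the panel member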
Chain of cGMP-dependent protein kinase 1 (Q13976 whole entry): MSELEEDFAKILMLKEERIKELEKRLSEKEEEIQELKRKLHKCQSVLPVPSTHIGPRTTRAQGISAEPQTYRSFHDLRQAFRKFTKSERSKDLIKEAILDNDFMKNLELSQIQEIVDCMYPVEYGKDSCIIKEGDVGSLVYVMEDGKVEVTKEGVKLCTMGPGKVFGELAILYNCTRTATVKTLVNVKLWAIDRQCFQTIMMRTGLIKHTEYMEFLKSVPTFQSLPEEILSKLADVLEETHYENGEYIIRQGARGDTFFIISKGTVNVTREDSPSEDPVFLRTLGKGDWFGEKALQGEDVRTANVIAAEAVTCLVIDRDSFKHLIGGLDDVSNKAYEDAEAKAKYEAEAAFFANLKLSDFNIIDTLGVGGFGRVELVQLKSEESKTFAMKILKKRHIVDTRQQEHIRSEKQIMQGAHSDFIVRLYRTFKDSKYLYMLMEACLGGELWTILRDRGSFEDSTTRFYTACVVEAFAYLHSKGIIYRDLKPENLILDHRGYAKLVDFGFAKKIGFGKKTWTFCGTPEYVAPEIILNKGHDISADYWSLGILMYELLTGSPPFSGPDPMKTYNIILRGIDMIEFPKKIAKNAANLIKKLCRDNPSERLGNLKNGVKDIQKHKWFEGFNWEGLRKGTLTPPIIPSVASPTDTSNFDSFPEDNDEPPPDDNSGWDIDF

[6] = molecular target: Calcium/calmodulin-dependent protein kinase type II subunit beta (Homo sapiens, UniProt Q13554); assay type: functional
Chain of Calcium/calmodulin-dependent protein kinase type II subunit beta (Q13554 whole entry): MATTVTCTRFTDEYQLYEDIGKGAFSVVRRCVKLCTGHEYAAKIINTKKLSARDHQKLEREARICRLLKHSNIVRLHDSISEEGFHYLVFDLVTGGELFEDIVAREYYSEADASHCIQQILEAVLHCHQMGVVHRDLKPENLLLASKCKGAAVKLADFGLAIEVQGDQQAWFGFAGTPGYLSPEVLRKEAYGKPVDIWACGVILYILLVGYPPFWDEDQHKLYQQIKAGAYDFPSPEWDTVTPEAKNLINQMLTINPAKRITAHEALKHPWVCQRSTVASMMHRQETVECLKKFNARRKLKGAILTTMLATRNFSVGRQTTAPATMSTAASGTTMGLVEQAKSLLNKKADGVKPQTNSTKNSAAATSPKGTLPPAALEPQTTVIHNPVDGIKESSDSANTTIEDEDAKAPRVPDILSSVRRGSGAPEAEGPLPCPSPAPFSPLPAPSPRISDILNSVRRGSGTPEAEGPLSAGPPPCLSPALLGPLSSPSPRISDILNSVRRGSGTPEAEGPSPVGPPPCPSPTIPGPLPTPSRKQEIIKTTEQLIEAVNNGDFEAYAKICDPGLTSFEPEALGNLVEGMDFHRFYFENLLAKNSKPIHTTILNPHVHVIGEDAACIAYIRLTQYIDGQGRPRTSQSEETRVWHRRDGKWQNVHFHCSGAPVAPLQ

[7] = molecular target: 1-phosphatidylinositol 4,5-bisphosphate phosphodiesterase beta-3 (Homo sapiens, UniProt Q01970); test: Fluorescence-based biochemical high throughput dose response assay to identify inhibitors of phospholipase C isozymes (PLC-B3).
[8] = molecular target: Ras and Rab interactor 1/Tyrosine-protein kinase ABL1 (Homo sapiens, UniProt P00519+Q13671); assay type: functional;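 further: biochemical TR-FRET dose-response test measuring inhibition of binding between Rin1 and Abl proteins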
Chain of Ras and Rab interactor 1/Tyrosine-protein kinase ABL1 (P00519 whole entry): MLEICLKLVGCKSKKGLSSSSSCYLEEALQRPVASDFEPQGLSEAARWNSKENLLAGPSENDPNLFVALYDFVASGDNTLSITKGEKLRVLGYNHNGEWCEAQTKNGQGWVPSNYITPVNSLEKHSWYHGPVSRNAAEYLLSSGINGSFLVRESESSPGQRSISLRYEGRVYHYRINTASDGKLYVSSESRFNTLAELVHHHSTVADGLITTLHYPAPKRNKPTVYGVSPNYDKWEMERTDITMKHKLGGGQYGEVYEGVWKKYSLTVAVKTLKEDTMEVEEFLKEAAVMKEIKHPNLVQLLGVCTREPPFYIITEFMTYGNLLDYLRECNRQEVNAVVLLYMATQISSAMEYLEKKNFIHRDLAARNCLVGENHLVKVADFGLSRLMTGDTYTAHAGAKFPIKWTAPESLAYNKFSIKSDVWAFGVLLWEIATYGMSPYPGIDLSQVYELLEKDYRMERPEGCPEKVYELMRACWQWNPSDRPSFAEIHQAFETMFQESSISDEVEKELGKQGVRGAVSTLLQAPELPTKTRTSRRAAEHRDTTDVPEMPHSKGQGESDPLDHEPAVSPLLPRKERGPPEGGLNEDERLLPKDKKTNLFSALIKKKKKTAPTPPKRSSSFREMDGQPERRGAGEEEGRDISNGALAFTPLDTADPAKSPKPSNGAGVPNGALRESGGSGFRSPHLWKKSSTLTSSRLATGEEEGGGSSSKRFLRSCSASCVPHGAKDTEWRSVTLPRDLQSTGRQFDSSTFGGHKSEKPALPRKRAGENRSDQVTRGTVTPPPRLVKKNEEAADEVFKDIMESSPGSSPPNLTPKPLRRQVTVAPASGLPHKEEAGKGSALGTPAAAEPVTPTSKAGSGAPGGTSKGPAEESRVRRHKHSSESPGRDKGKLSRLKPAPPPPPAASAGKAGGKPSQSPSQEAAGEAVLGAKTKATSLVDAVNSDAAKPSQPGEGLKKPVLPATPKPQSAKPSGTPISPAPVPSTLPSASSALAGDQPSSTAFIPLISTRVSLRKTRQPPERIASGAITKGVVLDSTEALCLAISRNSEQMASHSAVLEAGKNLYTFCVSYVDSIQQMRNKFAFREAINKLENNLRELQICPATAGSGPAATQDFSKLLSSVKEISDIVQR
Chain of Ras and Rab interactor 1/Tyrosine-protein kinase ABL1 (Q13671 whole entry): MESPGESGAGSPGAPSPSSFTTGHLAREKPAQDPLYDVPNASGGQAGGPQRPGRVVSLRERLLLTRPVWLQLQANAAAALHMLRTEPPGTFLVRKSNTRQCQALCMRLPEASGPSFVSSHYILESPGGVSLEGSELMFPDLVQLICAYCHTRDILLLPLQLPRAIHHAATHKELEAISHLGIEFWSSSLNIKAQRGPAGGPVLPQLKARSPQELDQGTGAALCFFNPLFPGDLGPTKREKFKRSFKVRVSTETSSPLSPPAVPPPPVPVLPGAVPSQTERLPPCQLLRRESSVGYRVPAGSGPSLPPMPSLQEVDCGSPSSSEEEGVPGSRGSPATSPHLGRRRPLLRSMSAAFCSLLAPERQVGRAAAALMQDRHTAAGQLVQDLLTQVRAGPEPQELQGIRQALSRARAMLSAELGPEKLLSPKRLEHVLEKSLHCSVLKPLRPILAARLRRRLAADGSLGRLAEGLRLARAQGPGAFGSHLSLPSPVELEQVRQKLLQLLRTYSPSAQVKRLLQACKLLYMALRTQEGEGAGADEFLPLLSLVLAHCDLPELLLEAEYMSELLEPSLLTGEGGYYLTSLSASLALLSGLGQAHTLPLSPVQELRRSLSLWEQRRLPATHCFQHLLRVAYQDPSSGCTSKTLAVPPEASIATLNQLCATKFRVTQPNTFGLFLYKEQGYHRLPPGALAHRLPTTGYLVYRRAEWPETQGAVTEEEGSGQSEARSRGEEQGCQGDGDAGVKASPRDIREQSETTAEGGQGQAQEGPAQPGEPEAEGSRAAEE

[9] = molecular target: Dual specificity tyrosine-phosphorylation-regulated kinase 1A (Rattus norvegicus, UniProt Q63470); assay type: biochemical, Homo sapiens
[10] = molecular target: 1-phosphatidylinositol 4,5-bisphosphate phosphodiesterase gamma-1 (Homo sapiens, UniProt P19174); test: Counterscreen for inhibitors of phospholipase C isozymes (PLC-B3): Fluorescence-based biochemical high throughput dose response assay to identify inhibitors of phospholipase C isozymes (PLC-gamma1).
[11] = molecular target: T2, DNA repair and recombination protein RAD54-like (Homo sapiens, UniProt Q92698); test: inhibitors of human RAD54 branch migration, confirmation, biochemical, fluorescence, cherry-picked samples, dose series (AID 651657); assay type: functional
T2 sequence (Q92698 whole entry): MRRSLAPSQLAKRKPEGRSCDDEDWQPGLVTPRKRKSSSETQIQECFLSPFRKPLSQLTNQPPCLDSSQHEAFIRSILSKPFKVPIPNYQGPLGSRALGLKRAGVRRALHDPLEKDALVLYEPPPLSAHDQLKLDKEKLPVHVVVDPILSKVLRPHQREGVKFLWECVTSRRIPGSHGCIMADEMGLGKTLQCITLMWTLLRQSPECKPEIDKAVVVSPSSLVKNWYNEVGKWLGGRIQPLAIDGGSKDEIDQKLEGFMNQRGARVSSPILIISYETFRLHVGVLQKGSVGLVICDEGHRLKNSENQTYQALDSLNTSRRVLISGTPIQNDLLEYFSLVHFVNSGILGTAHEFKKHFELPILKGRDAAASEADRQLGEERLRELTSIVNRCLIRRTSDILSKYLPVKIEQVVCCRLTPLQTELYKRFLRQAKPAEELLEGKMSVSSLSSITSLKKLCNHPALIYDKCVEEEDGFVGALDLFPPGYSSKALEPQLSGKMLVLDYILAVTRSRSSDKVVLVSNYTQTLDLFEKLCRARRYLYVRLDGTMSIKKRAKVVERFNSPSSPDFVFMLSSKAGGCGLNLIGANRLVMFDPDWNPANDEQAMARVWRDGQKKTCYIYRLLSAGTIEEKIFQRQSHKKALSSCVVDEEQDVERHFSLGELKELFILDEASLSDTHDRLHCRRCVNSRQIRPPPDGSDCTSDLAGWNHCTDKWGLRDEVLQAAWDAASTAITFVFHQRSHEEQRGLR

[12] = molecular target: T3, Sentrin-specific protease 7 (Homo sapiens, UniProt Q9BQF6); assay type: functional;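 further: Luminescence-based dose-response confirmation of ultra-high-throughput screening hits, measuring inhibition of SENP7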
T3 sequence (Q9BQF6 whole entry): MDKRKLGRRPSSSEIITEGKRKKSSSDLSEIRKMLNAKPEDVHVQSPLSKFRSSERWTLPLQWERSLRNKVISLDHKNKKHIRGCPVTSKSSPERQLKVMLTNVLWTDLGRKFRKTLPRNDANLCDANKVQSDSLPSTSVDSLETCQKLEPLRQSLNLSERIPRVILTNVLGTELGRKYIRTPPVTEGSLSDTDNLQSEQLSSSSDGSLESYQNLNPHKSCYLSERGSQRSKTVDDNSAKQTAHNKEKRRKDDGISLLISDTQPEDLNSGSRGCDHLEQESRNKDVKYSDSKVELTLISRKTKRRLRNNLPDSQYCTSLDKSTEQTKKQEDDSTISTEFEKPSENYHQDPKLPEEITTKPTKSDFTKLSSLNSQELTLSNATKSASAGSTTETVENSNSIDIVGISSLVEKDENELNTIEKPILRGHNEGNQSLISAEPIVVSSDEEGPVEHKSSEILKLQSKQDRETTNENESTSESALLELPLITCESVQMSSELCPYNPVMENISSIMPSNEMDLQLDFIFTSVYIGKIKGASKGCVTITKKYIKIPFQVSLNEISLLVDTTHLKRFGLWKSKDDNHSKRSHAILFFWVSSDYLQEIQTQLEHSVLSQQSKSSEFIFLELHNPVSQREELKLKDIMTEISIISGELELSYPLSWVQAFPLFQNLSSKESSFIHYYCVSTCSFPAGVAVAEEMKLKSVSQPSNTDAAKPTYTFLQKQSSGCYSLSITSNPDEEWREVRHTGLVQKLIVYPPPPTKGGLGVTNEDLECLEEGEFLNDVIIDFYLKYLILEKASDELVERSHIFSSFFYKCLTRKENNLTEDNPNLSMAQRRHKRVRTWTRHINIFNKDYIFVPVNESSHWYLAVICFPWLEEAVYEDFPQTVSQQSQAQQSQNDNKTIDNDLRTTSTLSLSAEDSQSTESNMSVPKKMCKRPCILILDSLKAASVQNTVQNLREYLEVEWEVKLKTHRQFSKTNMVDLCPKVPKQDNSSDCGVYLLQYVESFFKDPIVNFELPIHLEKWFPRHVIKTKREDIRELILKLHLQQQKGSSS

[13] = molecular target: Serine/threonine-protein phosphatase PP1-alpha catalytic subunit (Homo sapiens, UniProt P62136); test: PP1 phosphatase inhibitors, dose response, biochemical, fluorescence (AID 2394)
Chain of Serine/threonine-protein phosphatase PP1-alpha catalytic subunit (P62136 whole entry): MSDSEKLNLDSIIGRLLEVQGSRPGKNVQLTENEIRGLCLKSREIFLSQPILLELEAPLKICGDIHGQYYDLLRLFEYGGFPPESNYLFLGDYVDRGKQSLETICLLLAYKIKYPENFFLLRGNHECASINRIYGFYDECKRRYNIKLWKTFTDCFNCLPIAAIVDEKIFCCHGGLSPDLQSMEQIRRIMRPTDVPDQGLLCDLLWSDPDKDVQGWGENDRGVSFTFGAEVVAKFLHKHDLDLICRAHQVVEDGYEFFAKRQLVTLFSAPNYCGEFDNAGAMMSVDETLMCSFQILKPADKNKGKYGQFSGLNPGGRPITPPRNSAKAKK

COc1cc2ncn(-c3cc(OCc4ccccc4C(F)(F)F)c(C(N)=O)s3)c2cc1OC [GW843682X]
Ki [1]: 2000 nM (active) | Ki (Misshapen-like kinase 1): > 7940 nM (inactive) | Ki [2]: 63.1 nM (active) | Ki [3]: > 10000 nM (inactive) | Ki [4]: > 3160 nM (inactive) | Ki [5]: 316 nM (active) | Ki [6]: > 7940 nM (inactive)

CCCc1nc2c(=O)n(C)c(=O)nc-2n(C)n1
IC50 [7]: > 122000 nM (inactive) | IC50 [8]: 527 nM (active) | AC50 [9]: 249 nM (active) | IC50 [10]: > 1510 nM (active) | AC50 [11]: 1130 nM (active)

CC(=O)c1ccc(NC2=C(N3CCOCC3)C(=O)c3ccccc3C2=O)cc1
IC50 [12]: 18000 nM (active) | IC50 [13]: > 67000 nM (not active)
